From US10292390B2, “Inhibition and dispersion of bacterial biofilms with 2-aminobenzimidazole derivatives” (WISCONSIN ALUMNI RESEARCH FOUNDATION, priority 2011, dated 2019)

Columns and labels:
COS-7 cells = assay: fluorescence-based live/dead cytotoxicity assay; type: cell-based; conditions: 24 hrs, live/dead staining
Protocol: Experiments to characterize the toxicity of exemplary compound 21 in a model mammalian cell line were conducted by incubating COS-7 African Green Monkey kidney cells (American Type Culture Collection, Manassas, Va.), a fibroblast-like mammalian cell line, in the presence of varying amounts of compound 21 and characterizing resulting levels of cell death using a standard fluorescence-based live/dead assay. Cells were seeded in 96-well plates by adding 200 μL of a suspension containing 50,000 cells/mL in cell culture media (Gibco® DMEM supplemented with 10% (v/v) fetal bovine serum, 100 units/mL penicillin, and 100 μg/mL streptomycin) in individual wells of a black-walled, clear-bottomed 96-well cell culture plate (Costar 3603). […] Fluorescence microscopy images of the wells were acquired using an Olympus IX70 microscope and Metavue version 7.1.2.0 software package (Molecular Devices, Toronto, Canada). Images were analyzed using Image J 1.43u (National Institutes of Health; Washington, D.C.). Live and dead cell results were also analyzed by averaging the mean fluorescence from a minimum of six images taken from three replicate samples and normalized to untreated (live control) and methanol-treated (dead control) wells (see FIG. 20).

[1] = solubility of stock in 95:5 M9+:LB media; type: physicochemical; conditions: at 3.16 mM in 95:5 M9+:LB media
Protocol: Compounds 7 and 21 were evaluated for their ability to disperse preformed P. aeruginosa biofilms. For biofilm dispersion assessment, the static CV biofilm assay described above was modified in order to introduce compound to preformed biofilm for an additional incubation period. Solvent evaporation delivery of compound was not possible in this format; thus, stock solutions of compounds 7 and 21 were prepared in 95:5 M9+:LB media. Stocks of 7 and 21 were prepared at 3.16 mM and 1 mM, respectively (21 was insoluble at 3.16 mM). These stocks were diluted in series to obtain final concentrations as follows: 10^x μM where x=3.5 (7 only), 3, 2.5, 2, 1.5 (21 only), 1, 0, −1, or −2. Biofilms were allowed to form in microtiter plates in the absence of compound for 24 h, after which non-biofilm material was removed by dumping and washing as normal with sterile PBS. After the second washing, 200 μL of fresh 95:5 M9+:LB media containing compound at various concentrations was added to the wells, and the plates were incubated at 37° C. for an additional 24 h. […] Biofilm was fixed and quantified with CV as described above. The amount of dispersed biofilm was determined via comparison of the amount of biofilm at 48 h in the presence of compound versus the amount of biofilm in the “no compound” positive control at 24 h. […]

[2] = UV-Vis metal binding studies; type: physicochemical; conditions: compound:metal ratios of approximately 1:1; preliminary
Gram-positive bacteria = conditions: WO 2010/144686 (7); ref. 34 (18); cited from earlier work

Row | SMILES | concentrations at which not substantially cytotoxic (COS-7 cells) | solubility [1] | interaction with metals [2] | biofilm inhibition in Gram-positive bacteria as reported (Gram-positive bacteria)
1 | Cc1cc2nc(N)[nH]c2cc1C [Compound 21, 5,6-Dimethyl-2-aminobenzimidazole] | below 0.25 mM | insoluble | – | –
2 | Nc1nc2ccccc2[nH]1 [Compound 7, 2-aminobenzimidazole] | – | – | able to interact with certain metals | no inhibition of biofilm formation
